These results are taken from paper PMC7180617, “Biological Evaluation of 3-Benzylidenechromanones and Their Spiropyrazolines-Based Analogues” (Molecules, 2020).

As a reminder, the IC50 is the midpoint of a concentration-inhibition curve. As a reminder, the chromatographic logP is a lipophilicity value derived from retention on a column. A high value points to a more lipophilic compound. By logP is commonly meant the decadic logarithm of the partition coefficient of the neutral form, usually between octanol and water. A high value points to higher lipophilicity.

Values joined by “and” are separate entries in the source; they are usually repeats but may differ in a detail not shown here. Identical values can stand only once.

One data set has as its system NALM-6 cells. The experiment in a line: MTT cytotoxicity assay, NALM-6. Particulars: 46 h + 2 h incubation. Type of data set: cell-based, human. How it is done:
(§1) The first stage of the study used the MTT viability test to determine the cytotoxicity of ten compounds, i.e., 3-arylidenechromanone, 3-arylideneflavanone, spirochromanone and spiro- flavanone analogues, against four human cancer cell lines: HL-60, NALM-6, WM-115 and COLO-205.
(§2) Cytotoxicity was tested against human skin melanoma cells (WM-115, ECACC, Salisbury, UK), two human leukemia cell lines, viz. promyelocytic leukemia (HL-60) and lymphoblastic leukemia (NALM-6), and human colon adenocarcinoma cells (COLO-205). The cell lines COLO-205, WM-115 and HL-60 used in this work came from the ATCC American Type Culture Collection (Manassas, VA, USA), whereas the NALM-6 cell line was purchased from the German Collection of Microorganisms and Cell Cultures (Braunschweig, Germany). The leukaemia cells and colon adenocarcinoma were cultured in RPMI 1640 medium (Invitrogen, Grand Island, NY, USA) supplemented with 10% fetal bovine serum (FBS; Invitrogen) and gentamicin (25 µg/mL; KRKA, Novo Mesto, Slovenia). For melanoma WM-115 cells, Dulbecco’s minimal essential medium (DMEM; Invitrogen) was used. All cell lines were cultured at 37 °C in a humidified atmosphere of 5% CO2 in air.
(§3) For all experiments, the studied compounds were dissolved in DMSO (Sigma-Aldrich) and were further diluted in culture medium to obtain <0.1% DMSO concentration. In each experiment, controls with and without 0.1% DMSO were performed. The cytotoxicity of all compounds and of the reference compounds 4-chromanone and 3-benzylideneflavanone was determined by the MTT assay, i.e., 3-(4,5-dimethylthiazol-2-yl)-2,5-diphenyltetrazolium bromide (Sigma, St. Louis, MO, USA), which measures cellular dehydrogenase activity. Exponentially growing cells were seeded a day before the experiment onto a 96-well microplates (Nunc, Roskilde, Denmark) at a density up to 6–8 × 10^3 cells/well (depending on the cell line). Subsequently, various concentrations of the studied compounds freshly prepared in DMSO and diluted with complete culture medium were added. All compounds were tested for their cytotoxicity at a final concentration of 10^−7–10^−3 M. After 46 h of incubation with the studied compounds, the cells were treated with the MTT reagent and incubation was continued for another two hours. MTT – formazan crystals were dissolved in 20% sodium dodecyl sulphate (SDS, Sigma-Aldrich) and 50% DMF (Sigma-Aldrich) at pH 4.7; following this, absorbance was read at 570 nm on a multifunctional Victor ELISA-plate reader (Perkin Elmer, Turku, Finland). The IC50 values, i.e., the concentration of the test compound required to reduce the cell survival fraction to 50% of controls, were calculated from concentration-response curves and used as a measure of the sensitivity of the cells to a given treatment. As a control, cultured cells were grown in the absence of drugs. The data points represent the means of at least five to ten repeats ± standard deviation (S.D.).
For orientation: Tetrazolium dyes change colour on reduction, which living cells bring about.

A further data set relates to WM-115 cells. The experiment in a line: MTT cytotoxicity assay, WM-115. Type of data set: cell-based, human. Particulars: 46 h + 2 h incubation. How it is done: as §1, §2, §3
Data set [1] deals with HL-60 cells. Briefly: MTT cytotoxicity assay, HL-60. In kind it is cell-based, human. As to conditions: MTT, 46 h + 2 h incubation. The procedure: as §1, §2, §3
The nature of data set [2]: Lipophilicity (logP) by RP-TLC. Particulars: for chromatographic logP: RP-18 F254S TLC plates. The source says: Lipophilicity is one of the most important physicochemical properties in pharmaceutical research. It can be considered a key determinant of the pharmacokinetic properties of a drug. It is commonly measured by the partition coefficient between water and n-octanol, being expressed as logP [14]. […] Knowledge of the partition coefficient is valuable: it is frequently used in structure–activity relationship (SAR) and quantitative structure–activity relationship (QSAR) studies. The experimental lipophilicity of the synthesized compounds, viz. benzylideneflavanones, benzylidenechromanones and spiropyrazolines, was determined using RP-TLC. […] It is important to examine the relationship between structure of the compound and its lipophilicity and cytotoxicity.
The RP-TLC experiments were performed on TLC plates (5 × 10 cm) RP-18 F254S (Merck, Darmstadt, Germany). The synthesized compounds were dissolved in N,N-dimethylformamide DMF (2 mg/mL). […] A DMF-water solvent system was used as mobile phase. […] All experiments were performed at room temperature. The logP parameter was calculated using the equation from the calibration curve.

The subject of a further data set is COLO-205 cells. Briefly: MTT cytotoxicity assay, COLO-205. Particulars: 46 h + 2 h incubation. In kind it is cell-based, human. The procedure: as §1, §2, §3
A further data set has as its system erythrocytes. Briefly: Red blood cell morphology (phase-contrast microscopy). Type of data set: cell-based. As to conditions: 2% erythrocyte suspension, 37 °C, 1 h, phase contrast 400×. The procedure: Studies on erythrocyte morphology complement the erythrotoxicity studies because they provide information on potential immediate interactions of the tested compounds with the erythrocyte lipid bilayer, and the possibility of creating pathological forms of erythrocytes, which are not able to carry oxygen. The effects of the synthesized compounds, and the two reference compounds chromanone and flavanone, on the morphology of erythrocytes is shown in Figure 6. Briefly, 2% RBC suspension was incubated with 0.9% NaCl (control samples) or tested compounds at various concentrations corresponding to their activity towards cancer cell lines.
A 2% erythrocyte suspension was incubated at 37 °C for one hour with various concentrations of synthesized compounds. The morphology of the RBCs was examined by means of a phase contrast Opta-Tech inverted microscope, at 400× magnification, equipped with software (OptaView 7) for image analysis.

Data set [3] has as its system HL-60 cells. Briefly: Cell cycle analysis by flow cytometry (propidium iodide). Type of data set: cell-based, human. As to conditions: for cell cycle, G1, mean / cell cycle, G2/M, mean / cell cycle, S, mean: mean of n=2; for cell cycle distribution, G1 / cell cycle distribution, G2 / cell cycle distribution, G2/M: HL-60, 20 h, mean ± SD, n = 2. The procedure: The next stage examined the effects of the selected compounds on cell cycle progression in HL-60 leukemia cells. […] One million HL-60 (subline CCL 240; cell type: promyeloblast) cells in 3 mL of RPMI 1640 supplemented with 20% FBS were seeded on 6-well plate. […] Fixed cells were stored in −20 °C for 2–3 days. Before analysis, cells were centrifuged (10 min, 1500 rpm, 4 °C) and washed twice with cold PBS. After the second wash, the cells were suspended in 1mL of PBS containing 100 μg of RNase A and incubated in 37 °C for 10 min. Next, 5 μL of solution of propidium iodide (1 mg/mL) was added to each sample and incubated in dark for 30 min at RT. Stained cells were analyzed by flow cytometry (FACS Calibur, BD Biosciences, San Jose, CA, USA). Data from 10,000 gated cells were collected using CellQuestPro software (Ver 6.0, Becton Dickinson) and cell cycle analysis was performed with ModFit LT software (Ver 3.2, Verity Software House, Topsham, ME, USA).
A general note: A flow cytometer gives signals particle by particle.

Setting [4] is: Homo sapiens, NALM-6, 48 h, MTT.
Where [5] appears, read: Homo sapiens, WM-115, 48 h, MTT.
The mark [6] stands for this setting: Figure S3, HL-60, 0.5 × IC50 (µM: quercetin 29, 1 1.5, 7 18, 10 4.7, 11 4.5, 12 6).
Where [7] appears, read: Figure S3, HL-60, 0.5 × IC50, each of two repetitions.
[8] abbreviates: Figure S3, HL-60, 1 × IC50 (µM in parenthesis: quercetin 58, 1 3, 7 35, 10 9.4, 11 9, 12 12).
The mark [9] stands for this setting: Figure S3, HL-60, 1 × IC50 (µM: quercetin 58, 1 3, 7 35, 10 9.4, 11 9, 12 12).
[10] abbreviates: Figure S3, HL-60, 1 × IC50, each of two repetitions.
Setting [11] is: 0.5 × IC50 (µM: quercetin 29, 2 1.5, 7 18, 12 6, 11 4.5, 10 4.7).
The mark [12] stands for this setting: 1 × IC50 (µM: quercetin 58, 2 3, 7 35, 12 12, 11 9, 10 9.4).

Consider `O=C1/C(=C/c2ccccc2)C(c2ccccc2)Oc2ccccc21` (centres unmarked) [Compound 5, (E)-3-benzylidene-2-phenylchroman-4-one], for which the IC50 with NALM-6 cells (setting [4]) came out at 27 ± 3.1 µM; in the data set with WM-115 cells (setting [5]), 47.4 ± 4.62 µM; in the data set on HL-60 cells [1] (Homo sapiens, HL-60, 48 h), 33.7 ± 3.87 µM; in the data set on COLO-205 cells (Homo sapiens, COLO 205, 48 h), 77.1 ± 1.9 µM. Also, in data set [2], the chromatographic logP worked out at 4.9. Moreover, the “erythrocyte morphology (in words)” value in the data set on erythrocytes is “echinocytes accounted for the major part of erythrocytes”.

For `COc1cccc(/C=C2/C(=O)c3ccccc3OC2c2ccccc2)c1` (centres unmarked) [Compound 9, (E)-3-(3-methoxybenzylidene)-2-phenylchroman-4-one], the IC50 in the data set with NALM-6 cells (setting [4]) is 15.7 ± 6.23 µM; in the data set with WM-115 cells (setting [5]), 16.9 ± 3.78 µM; in the data set with HL-60 cells [1] (Homo sapiens, HL-60, 48 h), 35.9 ± 2.96 µM; in the data set with COLO-205 cells (Homo sapiens, COLO 205, 48 h) it was 170 ± 3.81 µM. In data set [2], this compound had a chromatographic logP of 5.83. Also, in the data set with erythrocytes, the “erythrocyte morphology (in words)” value is “echinocytes accounted for the major part of erythrocytes”.

For `COc1ccc(/C=C2/C(=O)c3ccccc3OC2c2ccccc2)cc1` (centres unmarked) [Compound 1, (E)-3-(4-methoxybenzylidene)-2-phenylchroman-4-one], the IC50 was determined as 49.8 ± 2.35 µM in the data set on NALM-6 cells (setting [4]); 58.1 ± 4.93 µM in the data set on WM-115 cells (setting [5]); 53.4 ± 2.49 µM with HL-60 cells [1] (Homo sapiens, HL-60, 48 h); 51 ± 2.3 µM in the data set on COLO-205 cells (Homo sapiens, COLO 205, 48 h). In data set [2], the chromatographic logP turned out to be 4.79. For the same compound, the “erythrocyte morphology (in words)” value with erythrocytes is “extensive formation of echinocytes and anisocytes”. Further, the results for the “cell cycle, G1, mean” value in the data set with HL-60 cells [3] (setting [6]) and in the data set with HL-60 cells [3] (setting [8]) were 23,52% and 21,31%, respectively. Moreover, the “cell cycle, G2/M, mean” value with HL-60 cells [3] (setting [6]) is 53,45%; in the data set with HL-60 cells [3] (setting [9]), 53,71%. In addition, the “cell cycle, S, mean” value in the data set on HL-60 cells [3] (setting [6]) was 23,04%; in the data set with HL-60 cells [3] (setting [9]) it was 25,02%. The “cell cycle, G2/M, single repetitions” value was 39,74% and 67,16% with HL-60 cells [3] (setting [7]); 68,86% and 38,56% with HL-60 cells [3] (setting [10]). Besides, the “cell cycle, S, single repetitions” value with HL-60 cells [3] (setting [7]) is 21,38% and 24,69%; in the data set with HL-60 cells [3] (setting [10]), 17,63% and 32,40%.

Regarding `N.N.O=C([O-])C1(C(=O)[O-])CCC1.[Pt+2]` [Carboplatin, reference compound], the IC50 in the data set with NALM-6 cells (MTT) worked out at 0.7 ± 0.2 µM; in the data set on WM-115 cells (MTT) it was 422 ± 50.2 µM; with HL-60 cells [1] it was 4.3 ± 1.3 µM; with COLO-205 cells, 355 ± 73.7 µM. The compound also came in with a logP in data set [2] (RP-TLC, DMF-water mobile phase, room temperature) of −2.30.

Turning to `O=c1c(O)c(-c2ccc(O)c(O)c2)oc2cc(O)cc(O)c12` [Quercetin, reference compound], the IC50 in the data set with NALM-6 cells (Homo sapiens, NALM-6, MTT) amounted to 77.1 ± 7.8 µM. In the data set with WM-115 cells (Homo sapiens, WM-115, MTT), the IC50 was 178 ± 21.5 µM. In addition, the half-maximal inhibitory concentration (IC50) in the data set with HL-60 cells [1] (Homo sapiens, HL-60, 48 h) turned out to be 58 ± 4 µM. Besides, in the data set with HL-60 cells [3] (setting [6]), the “cell cycle, G1, mean” value is reported as 14,26%; the “cell cycle, G2/M, mean” value was 60,76%; the “cell cycle, S, mean” value is 24,99%. Also, in the data set on HL-60 cells [3] (setting [7]), the “cell cycle, G1, single repetitions” value was 12,59% and 15,93%; the “cell cycle, G2/M, single repetitions” value is 60,50% and 61,01%; the “cell cycle, S, single repetitions” value was 23,57% and 26,40%. In the data set on HL-60 cells [3] (setting [8]), the “cell cycle, G1, mean” value was 11,59%. In the data set with HL-60 cells [3] (setting [9]), the “cell cycle, G2/M, mean” value is listed as 49,04% and the “cell cycle, S, mean” value is recorded as 39,38%. Besides, in the data set on HL-60 cells [3] (setting [10]), the “cell cycle, G1, single repetitions” value was 12,78% and 10,40%; the “cell cycle, G2/M, single repetitions” value is 46,07% and 52,00%; the “cell cycle, S, single repetitions” value was 41,15% and 37,60%. In addition, in the data set with HL-60 cells [3] (setting [11]), the “cell cycle distribution, G1” value is reported as 14.3 ± 2.4%; the “cell cycle distribution, G2” value was found to be 25.0 ± 2.0%; the “cell cycle distribution, G2/M” value came out at 60.8 ± 0.4%. Moreover, in the data set with HL-60 cells [3] (setting [12]), the “cell cycle distribution, G1” value was found to be 11.6 ± 1.7%; the “cell cycle distribution, G2” value was found to be 39.4 ± 2.5%; the “cell cycle distribution, G2/M” value was 49.0 ± 4.2%. Also, the “cells arrested in G2/M phase” value with HL-60 cells [3] (HL-60, concentrations of IC50 and 0.5 × IC50) is given as 50–60%.

Turning to `N.N.[Cl][Pt][Cl]` [Cisplatin, reference compound], the concentration for half-maximal inhibition (IC50) came to 0.7 ± 0.3 µM in the data set with NALM-6 cells (MTT), 18.2 ± 4.3 µM in the data set with WM-115 cells (MTT), 0.8 ± 0.1 µM in the data set on HL-60 cells [1] and 61.5 ± 3.2 µM with COLO-205 cells.
